Data as given in publication PMC3994986 (Pigment cell & melanoma research, 2012).
Ends that are not written are not given here.

Experiments:
mouse Mc1r = settings: ref Candille et al., 2007, cited from earlier work
[1] = tested on: mouse melan-a melanocytes; settings: concentrations up to 1uM, ref Candille et al., 2007; cited from earlier work
dog Mc1r = settings: ref Candille et al., 2007; cited from earlier work
[2] = tested on: MC1R variants in HBL human melanoma cells; settings: ref Herraiz et al., 2009, 2011; cited from earlier work
MC1R variant receptors = settings: ref Beaumont et al., 2005, 2007; cited from earlier work
[3] = tested on: pERK (HEK293 cells expressing MC1R); type: cell-based, human; settings: PKA inhibitor H89; 300 nM HBD3 (Figure 2C and D); NDP-MSH (Figure S2D)
[4] = tested on: MC1R variants D84E, V92M, R142H, R151C, R160W, D294H; type: cell-based, human
NR4A receptor family = settings: ref Smith et al., 2008; cited from earlier work
MAPK signalling = settings: ref Busca et al., 2000; cited from earlier work
human MC1R [5] = biological target: T1, human MC1R (Homo sapiens, UniProt Q01726); test: cAMP accumulation in HEK293 cells stably expressing human MC1R wild type; type: cell-based; settings: for agonist character for MC1R-mediated cAMP signalling: HEK cells expressing human MC1R, relative to NDP-MSH
T1 sequence (Q01726 whole entry): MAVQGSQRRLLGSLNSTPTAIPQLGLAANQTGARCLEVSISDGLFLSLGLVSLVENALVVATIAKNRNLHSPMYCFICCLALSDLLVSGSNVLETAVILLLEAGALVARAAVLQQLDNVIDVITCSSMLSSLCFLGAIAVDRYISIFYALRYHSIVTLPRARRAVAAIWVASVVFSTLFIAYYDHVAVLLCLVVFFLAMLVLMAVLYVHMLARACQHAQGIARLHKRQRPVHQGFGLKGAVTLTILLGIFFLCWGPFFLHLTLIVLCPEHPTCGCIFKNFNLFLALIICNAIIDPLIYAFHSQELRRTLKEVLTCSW

human MC1R [6] = biological target: T1, human MC1R; type: cell-based
HEK293 control cells = test: pERK response in control HEK293 cells; type: cell-based, human; settings: Figure S2B and E; ligand not given
MC1R [7] = settings: ref Candille et al., 2007; cited from earlier work
MC1R [8] = test: Inhibition of α-MSH-induced cAMP; type: cell-based; settings: Figure S1H

β-defensin 103 [CBD103]
Ki (mouse Mc1r; mouse Mc1r): 15.1 nM | binding to mouse Mc1r (mouse Mc1r): able to bind to dog and mouse Mc1r | cAMP induction in mouse melanocytes [1]: did not induce cAMP | binding to dog Mc1r (dog Mc1r): able to bind to dog and mouse Mc1r

NDP- melanocyte stimulating hormone [NDP-MSH]
MAPK activation by variant receptors versus wild-type MC1R [2]: able to activate MAPK as efficiently as wild-type MC1R | cAMP response of MC1R variant receptors (MC1R variant receptors): impaired cAMP responses | PKA dependence of MAPK activation [3]: This was also the case for NDP-MSH activation of MAPK | induction of pERK over basal levels by variant receptors ([4]; 10 nM NDP-MSH, 5 min, 2–3 independent experiments, Figure 3A, S3A): all variant receptors show an induction of pERK over the basal levels | average pERK increase over basal levels, combined variant receptor cells ([4]; 10 nM NDP-MSH, 5 min, mean, n ≥ 3, normalized to GAPDH): 2.7 fold | pERK of combined variant receptor clones compared to control cells ([4]; 10 nM NDP-MSH, 5 min, n ≥ 3, t-test): significant increase compared to the levels of pERK in control cells | induction of the NR4A receptor family (NR4A receptor family): PKC and p38 are involved in the NDP-MSH induction of the NR4A receptor family

alpha-melanocyte stimulating hormone (SYSMEHFRWGKPV; ends and bridges not checked; UniProt P01189 138-150, looked up) [α-MSH]
induction of MAPK signalling (MAPK signalling): induce MAPK signalling

human β-defensin 3 (GIINTLQKYYCRVRGGRCAVLSCLPKEEQIGKCSTRGRKCCRRKK; ends and bridges not checked; cysteine pairing not given here; UniProt P81534 23-67, looked up) [HBD3]
cAMP induction compared to 100 nM ASIP-YY (human MC1R [5]; 300 nM HBD3, Figure S1E and F): significant increase compared to 100 nM ASIP-YY | agonist character for MC1R-mediated cAMP signalling (human MC1R [5]): partial agonist, with both agonistic and antagonistic effects on cAMP signalling | agonist character for MC1R-mediated cAMP signalling (human MC1R [5]; listed as β-defensin 3): weak partial agonist for cAMP signalling | competitive inhibition of NDP-MSH relative to ASIP-YY (cAMP) (human MC1R [6]): weaker competitive inhibitor to NDP-MSH | inhibition of 1 nM NDP-MSH-induced cAMP (human MC1R [6]; 100 or 300 nM HBD3, two MC1R-expressing HEK clones (WTe, WT#21), 5–10 min, n = 3): able to inhibit the level of 1 nM NDP-MSH-induced cAMP | effect of increased concentration on level of inhibition (human MC1R [6]; 100 vs 300 nM HBD3, 1 nM NDP-MSH): did not significantly increase the level of inhibition | pERK induction in control cells (HEK293 control cells): no induction observed in control cells | binding to MC1R (MC1R [7]): found to bind with high affinity to the melanocortin-1 receptor | displacement of NDP-MSH in ligand-binding assays (MC1R [7]): displace NDP-MSH in ligand-binding assays | activation of ERK by variants ([4]; 300 nM HBD3, 5 min, exception of R151C and D84E, 2–3 independent experiments, Figure 3A, S3B): With the exception of R151C and D84E, HBD3 stimulation produced a similar activation of ERK by variants | competitive antagonism of α-MSH induction of cAMP (MC1R [8]): able to act as a competitive antagonist for α-MSH induction of cAMP
